In PubChem BioAssay AID256 (DTP/NCI, 2004):
Values joined by “and” are separate entries in the source; they are usually repeats but may differ in a detail not shown here. Equal values may be shown once. Inconclusive results and toxic doses are left out. Rule for the calls: active = survival T/C of 150% or more; inactive = T/C below 125% in these data.

System: CD2F1 mice, L1210 leukemia ip, survival T/C
Test: NCI In Vivo Anticancer Drug Screen. Data for tumor model L1210 Leukemia (intraperitoneal) in CD2F1 (CDF1) mice
Conditions: higher = longer survival
Method in brief: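 Transplantable tumor in mice; compound-treated vs vehicle-treated groups. Read-out = treated/control ratio of the measured endpoint.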

Measured: T/C

CN(C)/N=N/c1nc[nH]c1C(N)=O
inactive: endpoint: mean survival time, dose: 100.0 mg/kg/injection, schedule: Q03DX003 (ip), vehicle: saline 120 % of control | endpoint: mean survival time, dose: 100.0 mg/kg/injection, schedule: Q03HX016 (ip), vehicle: steriod suspending solution 122 % of control | endpoint: mean survival time, dose: 100.0 mg/kg/injection, schedule: Q03HX016 (oral), vehicle: steriod suspending solution 116 % of control | endpoint: mean survival time, dose: 100.0 mg/kg/injection, schedule: Q04DX003 (ip), vehicle: Klucel (hydroxypropylcellulose) (HPC) 114 % of control | endpoint: mean survival time, dose: 100.0 mg/kg/injection, schedule: Q04DX003 (ip), vehicle: other 114 % of control and 120 % of control | endpoint: mean survival time, dose: 100.0 mg/kg/injection, schedule: Q04DX003 (ip), vehicle: saline 108 % of control | endpoint: mean survival time, dose: 100.0 mg/kg/injection, schedule: Q04DX003 (ip), vehicle: steriod suspending solution 116 % of control | endpoint: mean survival time, dose: 100.0 mg/kg/injection, schedule: Q04DX003 (oral), vehicle: steriod suspending solution 116 % of control | endpoint: mean survival time, dose: 100.0 mg/kg/injection, schedule: Q08DX002 (ip), vehicle: steriod suspending solution 117 % of control | endpoint: mean survival time, dose: 100.0 mg/kg/injection, schedule: Q08DX002 (oral), vehicle: steriod suspending solution 115 % of control | endpoint: mean survival time, dose: 150.0 mg/kg/injection, schedule: Q01DX001 (oral), vehicle: saline 101 % of control | endpoint: mean survival time, dose: 180.0 mg/kg/injection, schedule: Q04DX003 (ip), vehicle: saline 114 % of control and 108 % of control | endpoint: mean survival time, dose: 182.0 mg/kg/injection, schedule: Q01DX009 (ip), vehicle: Klucel (hydroxypropylcellulose) (HPC) 120 % of control | endpoint: mean survival time, dose: 200.0 mg/kg/injection, schedule: Q01DX001 (ip), vehicle: distilled water + Tween-80 120 % of control | endpoint: mean survival time, dose: 200.0 mg/kg/injection, schedule: Q01DX009 (ip), vehicle: water 118 % of control | endpoint: mean survival time, dose: 200.0 mg/kg/injection, schedule: Q04DX003 (ip), vehicle: Klucel (hydroxypropylcellulose) (HPC) 123 % of control | endpoint: mean survival time, dose: 200.0 mg/kg/injection, schedule: Q04DX003 (ip), vehicle: steriod suspending solution 116 % of control | endpoint: mean survival time, dose: 200.0 mg/kg/injection, schedule: Q04DX003 (oral), vehicle: steriod suspending solution 122 % of control | endpoint: mean survival time, dose: 200.0 mg/kg/injection, schedule: Q08DX002 (oral), vehicle: steriod suspending solution 118 % of control | endpoint: mean survival time, dose: 300.0 mg/kg/injection, schedule: Q01DX001 (oral), vehicle: saline 113 % of control | endpoint: mean survival time, dose: 364.0 mg/kg/injection, schedule: Q01DX009 (ip), vehicle: Klucel (hydroxypropylcellulose) (HPC) 63 % of control | endpoint: mean survival time, dose: 400.0 mg/kg/injection, schedule: Q01DX005 (ip), vehicle: other 113 % of control | endpoint: mean survival time, dose: 400.0 mg/kg/injection, schedule: Q01DX009 (ip), vehicle: water 96 % of control | endpoint: mean survival time, dose: 400.0 mg/kg/injection, schedule: Q08DX002 (ip), vehicle: steriod suspending solution 121 % of control | endpoint: mean survival time, dose: 600.0 mg/kg/injection, schedule: Q01DX001 (oral), vehicle: saline 121 % of control | endpoint: mean survival time, dose: 800.0 mg/kg/injection, schedule: Q08DX002 (oral), vehicle: steriod suspending solution 123 % of control | endpoint: median survival time, dose: 9.8 mg/kg/injection, schedule: Q03HX008 (ip), vehicle: Klucel (hydroxypropylcellulose) (HPC) 105 % of control | endpoint: median survival time, dose: 22.2 mg/kg/injection, schedule: Q03HX008 (ip), vehicle: Klucel (hydroxypropylcellulose) (HPC) 114 % of control | endpoint: median survival time, dose: 33.3 mg/kg/injection, schedule: Q03HX008 (ip), vehicle: Klucel (hydroxypropylcellulose) (HPC) 123 % of control | endpoint: median survival time, dose: 48.0 mg/kg/injection, schedule: Q01DX005 (ip), vehicle: Klucel (hydroxypropylcellulose) (HPC) 115 % of control | endpoint: median survival time, dose: 50.0 mg/kg/injection, schedule: Q02DX005 (ip), vehicle: Klucel (hydroxypropylcellulose) (HPC) 121 % of control | endpoint: median survival time, dose: 72.0 mg/kg/injection, schedule: Q01DX005 (ip), vehicle: Klucel (hydroxypropylcellulose) (HPC) 123 % of control | endpoint: median survival time, dose: 100.0 mg/kg/injection, schedule: Q02DX005 (ip), vehicle: Klucel (hydroxypropylcellulose) (HPC) 117 % of control | endpoint: median survival time, dose: 108.0 mg/kg/injection, schedule: Q01DX005 (ip), vehicle: Klucel (hydroxypropylcellulose) (HPC) 124 % of control | endpoint: median survival time, dose: 240.0 mg/kg/injection, schedule: Q01DX001 (ip), vehicle: Klucel (hydroxypropylcellulose) (HPC) 115 % of control | endpoint: median survival time, dose: 600.0 mg/kg/injection, schedule: Q01DX001 (ip), vehicle: Klucel (hydroxypropylcellulose) (HPC) 121 % of control | endpoint: median survival time, dose: 900.0 mg/kg/injection, schedule: Q01DX001 (ip), vehicle: Klucel (hydroxypropylcellulose) (HPC) 123 % of control
active: endpoint: mean survival time, dose: 150.0 mg/kg/injection, schedule: Q01DX009 (ip), vehicle: Klucel (hydroxypropylcellulose) (HPC) 172 % of control | endpoint: mean survival time, dose: 200.0 mg/kg/injection, schedule: Q01DX007 (ip), vehicle: saline 159 % of control | endpoint: mean survival time, dose: 200.0 mg/kg/injection, schedule: Q01DX009 (ip), vehicle: DMSO 174 % of control | endpoint: mean survival time, dose: 200.0 mg/kg/injection, schedule: Q01DX009 (ip), vehicle: saline 151 % of control | endpoint: mean survival time, dose: 200.0 mg/kg/injection, schedule: Q01DX009 (ip), vehicle: steriod suspending solution 157 % of control | endpoint: mean survival time, dose: 200.0 mg/kg/injection, schedule: Q01DX009 (oral), vehicle: steriod suspending solution 169 % of control | endpoint: mean survival time, dose: 400.0 mg/kg/injection, schedule: Q01DX009 (oral), vehicle: steriod suspending solution 152 % of control | endpoint: mean survival time, dose: 800.0 mg/kg/injection, schedule: Q08DX002 (ip), vehicle: steriod suspending solution 164 % of control
